# Test results: US20240246959A1, “BENZIMIDAZOLE DERIVATIVE AND PREPARATION METHOD THEREFOR AND MEDICAL USE THEREOF” (Shenzhen Salubris Pharmaceuticals Co., Ltd., priority 2020, published 2024)
# Assays:
# human GLP-1 R = target: T1, human GLP-1 R (Homo sapiens, UniProt P43220); assay: cAMP signal activation in human GLP1R cells (hGLP1R-U2OS, HTRF); type: cell-based
# T1 construct: expressed in transfected cells
# Procedure: A cell line stably expressing human GLP1 R (hGLP1R-U2OS) was used in this experiment. The cells were cultured in a growth medium (complete medium, DMEM+10% FBS+500 μg/mL G418 (Promega)) in an incubator at 37° C. and has 5% CO2 saturated humidity.
# hGLP1R-U2OS was inoculated into 384-well plate with 1.0×10^4 cells/well (5 μL) (cell working solution: DMEM+0.1% BSA+1 mM IBMX (available from Bide Pharmatech Ltd.)), and was placed in an incubator at 37° C. and held for 30 min. The compounds to be tested were diluted stage-by-stage with Stimulation Buffer 1 (1×) in the kit, and the diluted compounds were added to the culture plate with 5 μL/well. They were incubated in an incubator at 37° C. for 30 min. Then, 5 μL/well of cAMP-d2 prepared with Lysis & Detection buffer and 5 μL/well of Anti CAMP-Cryptate working solution were added successively, and they were incubated at room temperature for 60 min before detection.
# The ratio of signal emitted by donor to […] in each well was calculated as follows: HTRF rate=signal at 665 nm/signal at 620 nm×104, and then the HTRF rate was converted into a reaction rate (%). The concentration-response curve of each Example compound was created by a 4-parameter equation as Y=Bottom+(Top−Bottom)/(1+10^((Log IC50−X)*HillSlope)), and the half maximal (50%) effective concentration (EC50) was calculated.
# [1] = Pharmacokinetic study on rat; type: in vivo, SD rats; details: for F: 5 mg/kg p.o vs 1 mg/kg i.v; for AUC(0-t) / Cmax / clearance / half-life: male, Sprague-Dawley (SD), plasma
# From the text: • SD rats: male, 180-250 g, purchased from Beijing Vital River Laboratory Animal Technology Co., Ltd. • Reagents: DMSO (dimethyl sulfoxide), PEG-400 (polyethylene glycol 400), physiological saline, heparin, acetonitrile, formic acid, and propranolol (internal standard), all of which are commercially available. • Instruments: Thermo Fisher Scientific LC-MS (U300 UPLC, TSQ QUANTUMN ULTRA triple quadrupole mass spectrometer).
# A compound was weighed and dissolved in a DMSO-PEG-400-physiological saline (5:60:35, v/v/v) system. After the rats were administered with the compound intravenously or by gavage, 200 μL of venous blood samples were collected at 15 min, 30 min, 1 h, 2 h, 5 h, 7 h, and 24 h (for i.v. group an additional collection was performed at 5 min) in heparinized EP tubes respectively, which were centrifuged at 12,000 rpm for 2 min, and the plasma was frozen at −80° C. for further testing. A certain amount of the test substance was precisely weighed and dissolved in DMSO to obtain a stock solution with a concentration of 2 mg/mL. An appropriate amount of the stock solution of the compound was accurately pipetted and diluted with acetonitrile to prepare a standard series solution. 20 μL of each of the above standard series solution was accurately pipetted, added with 180 μL of blank plasma, and vortexed mixed to prepare plasma samples corresponding to plasma concentrations of 0.3, 1, 3, 10, 30, 100, 300, 1000, 3000 ng/mL. Two-sample analysis was performed for each concentration to establish a standard curve. 30 μL of plasma (for samples that are obtained at 5 min, 15 min, 30 min, and 1 h after intravenous administration, the plasma were diluted 10 times) was taken, added with 200 μL of a solution of internal standard propranolol in acetonitrile (50 ng/ml), and vortexed mixed. The mixture was then added with 100 μL of pure water, and vortexed and mixed again. It was centrifuged at 4000 rpm for 5 min, and the supernatant was collected for LC-MS analysis. LC-MS detection conditions were as follows. • Chromatographic column: Thermo Scientific HYPERSIL GOLD C-18 UPLC column, 100*2.1 mm, 1.7 μm. • Mobile phase: water (with 0.1% formic acid)-acetonitrile; gradient elution was performed according to the table below.
# After blood drug concentrations was detected by LC-MS, WinNonlin 6.1 software was used to calculate pharmacokinetic parameters based on non-compartmental model.
# [2] = target: T2, hERG potassium ion channel (Homo sapiens, UniProt Q12809); assay: Effect on hERG potassium ion channel (CHO-hERG, manual patch clamp); type: cell-based
# T2 construct: expressed in transfected cells
# Procedure: A cell line CHO-hERG from ovary of Chinese hamster that stably expresses hERG potassium channel was used in this experiment. The cells were cultured in F12 complete medium containing 10% FBS, 1% antibiotics (G418), and 89 μg/mL hygromycin. The recovery medium was a F12 medium containing 10% FBS. Culture was performed at 37° C. and under 5% CO2.
# The inhibitory activity of the compounds of the present invention in series gradient concentrations on the potassium channel in CHO-hERG was determined by manual patch clamp system.
# T1 sequence (P43220 24-463): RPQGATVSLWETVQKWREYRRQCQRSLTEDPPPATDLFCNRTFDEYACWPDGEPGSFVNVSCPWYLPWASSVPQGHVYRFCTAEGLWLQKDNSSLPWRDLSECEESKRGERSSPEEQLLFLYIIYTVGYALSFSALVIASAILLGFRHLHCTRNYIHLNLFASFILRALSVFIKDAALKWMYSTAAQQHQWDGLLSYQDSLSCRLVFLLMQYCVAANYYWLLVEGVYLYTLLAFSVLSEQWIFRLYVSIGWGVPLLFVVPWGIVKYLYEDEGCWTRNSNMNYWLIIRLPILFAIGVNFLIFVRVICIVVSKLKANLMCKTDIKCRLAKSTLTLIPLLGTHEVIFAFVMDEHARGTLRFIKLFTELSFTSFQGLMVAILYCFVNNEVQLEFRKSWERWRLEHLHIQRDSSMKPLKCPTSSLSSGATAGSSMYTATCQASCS
# T2 sequence (Q12809 whole entry): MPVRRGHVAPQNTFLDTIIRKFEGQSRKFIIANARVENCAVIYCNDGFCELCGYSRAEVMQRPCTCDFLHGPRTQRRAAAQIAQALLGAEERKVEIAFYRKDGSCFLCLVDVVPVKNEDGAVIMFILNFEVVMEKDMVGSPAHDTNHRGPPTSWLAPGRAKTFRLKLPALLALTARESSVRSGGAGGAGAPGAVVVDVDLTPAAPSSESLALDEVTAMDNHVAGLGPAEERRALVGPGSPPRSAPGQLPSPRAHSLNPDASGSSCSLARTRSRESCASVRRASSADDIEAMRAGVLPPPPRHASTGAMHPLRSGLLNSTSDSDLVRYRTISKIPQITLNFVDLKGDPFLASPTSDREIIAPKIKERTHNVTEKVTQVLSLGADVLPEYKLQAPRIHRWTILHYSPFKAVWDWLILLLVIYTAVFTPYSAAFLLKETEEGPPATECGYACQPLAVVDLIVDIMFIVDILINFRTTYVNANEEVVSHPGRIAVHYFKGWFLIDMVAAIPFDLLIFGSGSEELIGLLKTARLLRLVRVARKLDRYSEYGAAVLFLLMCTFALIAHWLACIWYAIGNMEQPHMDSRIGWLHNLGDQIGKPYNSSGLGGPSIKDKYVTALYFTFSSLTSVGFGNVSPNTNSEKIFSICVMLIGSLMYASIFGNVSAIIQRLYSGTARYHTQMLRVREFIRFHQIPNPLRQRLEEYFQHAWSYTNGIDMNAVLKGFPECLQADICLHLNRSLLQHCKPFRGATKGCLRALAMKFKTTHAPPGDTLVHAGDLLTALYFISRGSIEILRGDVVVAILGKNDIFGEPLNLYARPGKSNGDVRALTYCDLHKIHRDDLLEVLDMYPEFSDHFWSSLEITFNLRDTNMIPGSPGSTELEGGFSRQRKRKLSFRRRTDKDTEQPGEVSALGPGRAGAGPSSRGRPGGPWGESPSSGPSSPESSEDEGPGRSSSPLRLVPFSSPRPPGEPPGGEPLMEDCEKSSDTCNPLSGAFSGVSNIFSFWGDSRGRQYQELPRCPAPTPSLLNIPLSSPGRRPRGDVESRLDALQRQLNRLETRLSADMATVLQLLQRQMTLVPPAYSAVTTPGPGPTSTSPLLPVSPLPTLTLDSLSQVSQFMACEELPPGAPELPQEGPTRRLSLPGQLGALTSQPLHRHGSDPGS
EC50 (human GLP-1 R),F [1],"AUC(0-t) ([1]; iv, 1 mg/kg, i.v)","Cmax ([1]; iv, 1 mg/kg, i.v)","clearance ([1]; iv, 1 mg/kg, i.v)","half-life ([1]; iv, 1 mg/kg, i.v)","AUC(0-t) ([1]; po, 5 mg/kg, p.o)","Cmax ([1]; po, 5 mg/kg, p.o)","half-life ([1]; po, 5 mg/kg, p.o)",Structure (SMILES),IC50 [2]
1.04 nM,72.8%,5770 ng·h/mL,4730 ng/mL,2.88 mL/min/kg,3.87 h,21000 ng·h/mL,3470 ng/mL,2.76 h,"C[C@@H](c1nc2ccc(C(=O)O)cc2n1C[C@@H]1CCO1)N1CCC(c2cccc(OCc3cc(F)ccc3F)n2)CC1 [Example 5, 2-((S)-1-(4-(6-((2,5-difluorobenzyl)oxy)pyridin-2-yl)piperidin-1-yl)ethyl)-1-(((S)-oxetan-2-yl)methyl)-1H-benzo[d]imidazol-6-carboxylic acid]",–
3.18 nM,63.5%,1250 ng·h/mL,2330 ng/mL,13.3 mL/min/kg,0.71 h,3970 ng·h/mL,1290 ng/mL,3.11 h,"C[C@@H](c1nc2ccc(C(=O)O)cc2n1C[C@@H]1CCO1)N1CCC(c2cccc(OCc3ccc(C#N)cc3F)n2)CC1 [Example 2A, 2-((S)-1-(4-(6-((4-cyano-2-fluorobenzyl)oxy)pyridin-2-yl)piperidin-1-yl)ethyl)-1-(((S)-oxetan-2-yl)methyl)-1H-benzo[d]imidazol-6-carboxylic acid]",–
1.71 nM,49.0%,2430 ng·h/mL,2310 ng/mL,6.88 mL/min/kg,2.89 h,5950 ng·h/mL,747 ng/mL,3.4 h,"C[C@@H](c1nc2ccc(C(=O)O)cc2n1C[C@@H]1CCO1)N1CCC(c2cccc(OCc3ccc(Cl)cc3F)n2)CC1 [Example 1A, 2-((S)-1-(4-(6-((4-chloro-2-fluorobenzyl)oxy)pyridin-2-yl)piperidin-1-yl)ethyl)-1-(((S)-oxetan-2-yl)methyl)-1H-benzo[d]imidazol-6-carboxylic acid]",–
18.7 nM,–,–,–,–,–,–,–,–,"C[C@@H](c1nc2ccc(C(=O)O)cc2n1C[C@@H]1CCO1)N1CCC(c2cccc(OCc3ccc(Br)cc3F)n2)CC1 [Example 13, 2-((S)-1-(4-(6-((4-bromo-2-fluorobenzyl)oxy)pyridin-2-yl)piperidin-1-yl)ethyl)-1-(((S)-oxetan-2-yl)methyl)-1H-benzo[d]imidazol-6-carboxylic acid]",–
15.5 nM,–,–,–,–,–,–,–,–,C[C@@H](c1nc2ccc(C(=O)O)cc2n1C[C@@H]1CCO1)N1CCN(c2cccc(OCc3ccc(Cl)cc3F)n2)CC1 [Example 39A],–
14.4 nM,–,–,–,–,–,–,–,–,"C[C@@H](c1nc2ccc(C(=O)O)cc2n1C[C@@H]1CCO1)N1CCC(c2cccc(OCc3ccc(Cl)cc3F)n2)C(O)C1 (stereo partly drawn) [Example 31, 2-((1S)-1-((3,4-trans)-4-(6-((4-chloro-2-fluorobenzyl)oxy)pyridin-2-yl)-3-hydroxypiperidin-1-yl)ethyl)-1-(((S)-oxetan-2-yl)methyl)-1H-benzo[d]imidazol-6-carboxylic acid]",–

# The next lines start with the compound.
Structure (SMILES),EC50 (human GLP-1 R),F [1],"AUC(0-t) ([1]; iv, 1 mg/kg, i.v)","Cmax ([1]; iv, 1 mg/kg, i.v)","clearance ([1]; iv, 1 mg/kg, i.v)","half-life ([1]; iv, 1 mg/kg, i.v)","AUC(0-t) ([1]; po, 5 mg/kg, p.o)","Cmax ([1]; po, 5 mg/kg, p.o)","half-life ([1]; po, 5 mg/kg, p.o)",IC50 [2]
"C[C@@H](c1nc2ccc(C(=O)O)cc2n1C[C@@H]1CCO1)N1CCN(c2cccc(OCc3ccc(C#N)cc3F)n2)CC1 [Example 20A, 2-((S)-1-(4-(6-((4-cyano-2-fluorobenzyl)oxy)pyridin-2-yl)piperazin-1-yl)ethyl)-1-(((S)-oxetan-2-yl)methyl)-1H-benzo[d]imidazol-6-carboxylic acid]",4.66 nM,46.4%,539 ng·h/mL,1290 ng/mL,30.7 mL/min/kg,0.31 h,1250 ng·h/mL,348 ng/mL,1.17 h,> 30000 nM
"C[C@@H](c1nc2ccc(C(=O)O)nc2n1C[C@@H]1CCO1)N1CCC(c2cccc(OCc3ccc(Cl)cc3F)n2)CC1 [Example 12, 2-((S)-1-(4-(6-((4-chloro-2-fluorobenzyl)oxy)pyridin-2-yl)piperidin-1-yl)ethyl)-3-(((S)-oxetan-2-yl)methyl)-3H-imidazolo[4,5-b]pyridin-5-carboxylic acid]",3.89 nM,168.2%,1700 ng·h/mL,2250 ng/mL,9.79 mL/min/kg,0.87 h,14300 ng·h/mL,3780 ng/mL,2.69 h,–
"C[C@@H](c1nc2ccc(C(=O)O)nc2n1C[C@@H]1CCO1)N1CCN(c2cccc(OCc3ccc(Cl)cc3F)n2)CC1 [Example 52A, 2-((S)-1-(4-(6-((4-chloro-2-fluorobenzyl)oxy)pyridin-2-yl)piperazin-1-yl)ethyl)-3-(((S)-oxetan-2-yl)methyl)-3H-imidazo[4,5-b]pyridin-5-carboxylic acid]",2 nM,76.6%,1130 ng·h/mL,2050 ng/mL,14.7 mL/min/kg,0.95 h,4330 ng·h/mL,1160 ng/mL,2.77 h,–
"C[C@@H](c1nc2ccc(C(=O)O)cc2n1C[C@@H]1CCO1)N1CCC(c2cccc(OCc3ccc4cnn(CC(F)(F)F)c4c3)n2)CC1 [Example 9, 1-(((S)-oxetan-2-yl)methyl)-2-((S)-1-(4-(6-((1-(2,2,2-trifluoroethyl)-1H-indazol-6-yl)methoxy)pyridin-2-yl)piperidin-1-yl)ethyl)-1H-benzo[d]imidazol-6-carboxylic acid]",3.48 nM,–,–,–,–,–,–,–,–,–
"C[C@@H](c1nc2ccc(C(=O)O)nc2n1C[C@@H]1CCO1)N1CCN(c2cccc(OCc3ccc(C#N)cc3F)n2)CC1 [Example 51A, 2-((S)-1-(4-(6-((4-cyano-2-fluorobenzyl)oxy)pyridin-2-yl)piperazin-1-yl)ethyl)-3-(((S)-oxetan-2-yl)methyl)-3H-imidazo[4,5-b]pyridin-5-carboxylic acid]",2.28 nM,34.3%,613 ng·h/mL,1990 ng/mL,27.2 mL/min/kg,0.71 h,1050 ng·h/mL,323 ng/mL,1.06 h,–
